Values quoted from earlier work in US11998629B2, “Method for dyeing keratinous material, comprising the use of an organosilicon compound, an effect pigment and a film-forming polymer” (Henkel AG & Co. KGaA, priority 2019, dated 2024).

Settings: 25° C.

Molecule | solubility in water | further results
CCN(Cc1cccc(S(=O)(=O)[O-])c1)c1ccc(C(=C2C=CC(=[N+](CC)Cc3cccc(S(=O)(=O)[O-])c3)C=C2)c2ccccc2S(=O)(=O)[O-])cc1.[Na+].[Na+] [Acid Blue 9] | – | water solubility: greater than 20 % by weight
O=S(=O)([O-])c1ccc(N=Nc2c(O)ccc3ccccc23)cc1.[Na+] [Acid Orange 7, sodium salt of 4-[(2-hydroxy-1-naphthyl)azo]benzenesulfonate] | more than 7 g/L | –
Nc1cc(S(=O)(=O)[O-])cc2cc(S(=O)(=O)[O-])c(N=Nc3ccccc3)c(O)c12.[Na+].[Na+] [Acid Red 33, disodium salt of 5-amino-4-hydroxy-3-(phenylazo)-naphthalene-2,7-disulphonate] | 2.5 mg/mL | –
O=C([O-])c1c(Cl)c(Cl)c(Cl)c(Cl)c1-c1c2c(Br)cc(=O)c(Br)c-2oc2c(Br)c(O)cc(Br)c12.O=C([O-])c1c(Cl)c(Cl)c(Cl)c(Cl)c1-c1c2c(Br)cc(=O)c(Br)c-2oc2c(Br)c(O)cc(Br)c12.[Na+].[Na+] [Acid Red 92, disodium salt of 3,4,5,6-tetrachloro-2-(1,4,5,8-tetrabromo-6-hydroxy-3-oxoxanthen-9-yl)benzoic acid] | greater than 10 g/L | –
O=C([O-])C1=NN(c2ccc(S(=O)(=O)[O-])cc2)C(=O)C1N=Nc1ccc(S(=O)(=O)[O-])cc1.[Na+].[Na+].[Na+] (stereo not drawn) [Acid Yellow 23, trisodium salt of 4,5-dihydro-5-oxo-1-(4-sulfophenyl)-4-((4-sulfophenyl)azo)-1H-pyrazole-3-carboxylic acid] | – | solubility in water (in words): readily soluble
mixture of the sodium salts of mono- and disulfonic acids of 2-(2-quinolyl)-1H-indene-1,3(2H)-dione [Acid Yellow 3] | 20 mg/mL | –
